In ChEMBL document CHEMBL2321701 (J Med Chem, 2013):
Active and inactive are the calls of the source. The rule behind the calls is not given here.

Legend:
Plasmodium falciparum [1] = assay: Antimalarial activity against chloroquine-sensitive Plasmodium falciparum NF54 infected mouse assessed as reduction in parasitemia at 30 mg/kg, po measured on day 3 postinfection relative to control; assay type: functional; parameters: scale not given: the % may be the effect or the level left
Plasmodium falciparum [2] = assay: animal or person; conditions: NF54
[3] = tested on: Plasmodium berghei (mouse); assay: Antimalarial activity against chloroquine-sensitive Plasmodium berghei infected mouse assessed as cured animal at 30 mg/kg, po measured on day 30 postinfection
[4] = tested on: Plasmodium berghei (mouse); assay: Antimalarial activity against chloroquine-sensitive Plasmodium berghei infected mouse assessed as survival at 30 mg/kg, po
Plasmodium falciparum [5] = assay: microbe, parasite or virus in culture; conditions: K1
[6] = Intrinsic clearance in mouse liver microsomes at 1 uM after 60 mins by LC-MS analysis; assay type: ADME, Microsome; conditions: read-out: CLH
[7] = Lipophilicity, log D of the compound at pH 7.4; assay type: physicochemical; conditions: buffer
[8] = AUC (0 to 24 hrs) in mouse at 30 mg/kg, po by LC-MS analysis; assay type: ADME, organism-based; parameters: time < 24 hr, dose 30 mg/kg, route oral; conditions: plasma
[9] = Half life in mouse whole blood; assay type: ADME, tissue-based
[10] = Partition coefficient, log P of the compound; assay type: physicochemical; conditions: octanol/water
[11] = Plasma concentration in Swiss outbred mouse at 30 mg/kg, po at 24 hrs by LC-MS analysis; assay type: ADME, organism-based; parameters: dose 30 mg/kg, route oral
[12] = Dissociation constant, pKa of the compound; assay type: physicochemical

With O[C@@H](c1cc(C(F)(F)F)nc2c(C(F)(F)F)cccc12)[C@H]1CCCCN1 (relative stereo) [(S,R)-MEFLOQUINE] the Activity (Plasmodium falciparum [1]) was 99.6%, the IC50 (Plasmodium falciparum [2]) was 0.014 µM and the Activity [3] was “inactive”. It also gave a Survival [4] of 22 days and an IC50 (Plasmodium falciparum [5]) of 0.0072 µM.
For CCN(CC)CCCC(C)Nc1ccnc2cc(Cl)ccc12 (configuration not stated) [CHLOROQUINE], the Activity [3] was “inactive” and the Survival [4] was 10 days.
CC(C)(N)CNC(=O)CC1CCC2(CC1)COC1(OO2)C2CC3CC(C2)CC1C3 (configuration not stated) gave a microsomal CLint at 1 µM [6] of less than 7 µL/min/mg, an Activity (Plasmodium falciparum [1]) of 99.1% and an IC50 (Plasmodium falciparum [2]) of 0.029 µM. The logD [7] was 1.05, the AUC(0-t) at 24 h [8] was 22.4 µM·h and the Activity [3] was “inactive”. It also gave a half-life [9] of 138 min, a Survival [4] of 15 days and a logP [10] of 2.44. The IC50 (Plasmodium falciparum [5]) was 0.019 µM, the concentration at 24 h [11] was greater than 10 ng/mL and the pKa [12] was 9.05.
In the case of CC(C)(N)CNC(=O)C[C@H]1CC[C@@]2(CC1)C[C@@]1(OO2)C2CC3CC(C2)CC1C3, the microsomal CLint at 1 µM [6] is reported as 12 µL/min/mg, the IC50 (Plasmodium falciparum [2]) is reported as 0.44 µM and the logD [7] is reported as 1.83. The half-life [9] was 60 min, the logP [10] was 3.21 and the IC50 (Plasmodium falciparum [5]) was 0.17 µM. The pKa [12] was 9.05.
For CC(C)(N)CNC(=O)CC1CCC2(CC1)OOC1(OO2)C2CC3CC(C2)CC1C3 (configuration not stated), the microsomal CLint at 1 µM [6] was 14 µL/min/mg, the Activity (Plasmodium falciparum [1]) was 99.5% and the IC50 (Plasmodium falciparum [2]) was 0.0017 µM. For the same molecule, the logD [7] was 0.87, the AUC(0-t) at 24 h [8] was 13.5 µM·h and the Activity [3] was “inactive”. It also gave a half-life [9] of 54.6 min, a Survival [4] of 9 days and a logP [10] of 2.26. The IC50 (Plasmodium falciparum [5]) was 0.0009 µM, the concentration at 24 h [11] was less than 1 ng/mL and the pKa [12] was 9.05.
CC(C)(N)CNC(=O)C[C@H]1CC[C@]2(CC1)OO[C@]1(O2)C2CC3CC(C2)CC1C3 [OZ277] gave a microsomal CLint at 1 µM [6] of 17 µL/min/mg, an Activity (Plasmodium falciparum [1]) of 99.9% and a logD [7] of 0.69. The AUC(0-t) at 24 h [8] was 5.13 µM·h, the Activity [3] was “inactive” and the half-life [9] was 55.8 min. For the same molecule, the Survival [4] was 11 days, the logP [10] was 2.07 and the concentration at 24 h [11] was less than 1 ng/mL. The pKa [12] was 9.05.
In the case of c1cc([C@H]2CC[C@]3(CC2)OO[C@]2(O3)C3CC4CC(C3)CC2C4)ccc1OCCN1CCOCC1 [ARTEFENOMEL], the Activity (Plasmodium falciparum [1]) is reported as greater than 99.9%, the IC50 (Plasmodium falciparum [2]) is reported as 0.0034 µM and the logD [7] is reported as 4.53. For the same molecule, the AUC(0-t) at 24 h [8] was 52.7 µM·h, the Activity [3] was “Active” and the Survival [4] was greater than 30 days. The logP [10] was 4.63, the IC50 (Plasmodium falciparum [5]) was 0.0028 µM and the concentration at 24 h [11] was greater than 200 ng/mL. It also gave a pKa [12] of 6.81.
Molecule c1cc([C@H]2CC[C@@]3(CC2)C[C@@]2(OO3)C3CC4CC(C3)CC2C4)ccc1OCCN1CCOCC1 has a microsomal CLint at 1 µM [6] of 28 µL/min/mg, an IC50 (Plasmodium falciparum [2]) of 1.2 µM and a logD [7] of 5.56. The logP [10] was 5.66, the IC50 (Plasmodium falciparum [5]) was 0.37 µM and the pKa [12] was 6.82.
For C[C@H]1[C@H](OC(=O)CCC(=O)O)O[C@@H]2O[C@@]3(C)CC[C@H]4[C@H](C)CC[C@@H]1[C@@]24OO3 [ARTESUNATE], the Activity (Plasmodium falciparum [1]) was 92%, the Activity [3] was “inactive” and the Survival [4] was 9 days.
